Each structure is given as a SMILES string. ≈ marks a conversion by molar mass, not a printed value.

What all share (format): functional
Assay [1] deals with Burkholderia cepacia. In words: Antimicrobial susceptibility of Burkholderia cepacia complex isolated from cystic fibrosis patient assessed as percent susceptible isolates.
Assay [2] deals with Burkholderia cepacia. As to the kind of experiment: Antimicrobial activity against Burkholderia cepacia complex isolated from cystic fibrosis patient by broth microdilution assay. On the technique in general: Dilution methods test growth across graded concentrations, often in twofold steps.
In assay [3] the test system is Burkholderia cepacia. As to the kind of experiment: Antimicrobial susceptibility of Burkholderia cepacia complex isolated from cystic fibrosis patient assessed as percent resistant isolates.

For `C[C@@H](O)[C@H]1C(=O)N2C(C(=O)O)=C(SCCNC=N)C[C@H]12` [IMIPENEM ANHYDROUS], the Activity in assay [1] stood at 7%.
As a reminder, the MIC50 is an inhibitory concentration at the 50% level, which refers to growth in some studies and to a panel of isolates in others. Read a low MIC50 as greater potency. The MIC90 is the lowest concentration that inhibits either 90% of growth or 90% of the strains tested, depending on the study. Lower therefore signals higher susceptibility. With `C[C@H]1c2cccc(O)c2C(=O)C2=C(O)[C@]3(O)C(=O)C(C(N)=O)=C(O)[C@@H](N(C)C)[C@@H]3[C@@H](O)[C@@H]21.O` [DOXYCYCLINE], in assay [2], the MIC50 worked out at 16 µg/mL and the MIC90 is over 32 µg/mL. Further, in assay [1], the Activity was determined as 22%. For the same molecule, the Activity in assay [3] came to 61%.
`C[C@@H](O)[C@H]1C(=O)N2C(C(=O)O)=C(S[C@@H]3CN[C@H](C(=O)N(C)C)C3)[C@H](C)[C@H]12` [MEROPENEM] yielded an MIC50 in assay [2] of 8 µg/mL (≈ 20.9 µM). The molecule further came in with an MIC90 in assay [2] of 32 µg/mL (≈ 83.4 µM). Also, the results for the Activity in assay [1] and in assay [3] were 26% and 48%, respectively.
Take `O=C(O)c1cn(C2CC2)c2cc(N3CCNCC3)c(F)cc2c1=O` [CIPROFLOXACIN]: the Activity in assay [1] was found to be 5%.
In the case of `C[C@H]1[C@H](NC(=O)/C(=N\OC(C)(C)C(=O)O)c2csc(N)n2)C(=O)N1S(=O)(=O)O` [AZTREONAM], in assay [1], the Activity came to 2%.
In assay [2], `CN(C)c1ccc(O)c2c1C[C@H]1C[C@H]3[C@H](N(C)C)C(O)=C(C(N)=O)C(=O)[C@@]3(O)C(O)=C1C2=O` [MINOCYCLINE] came in with an MIC50 of 8 µg/mL (≈ 17.5 µM) and an MIC90 of 32 µg/mL (≈ 69.9 µM). Besides, the Activity in assay [1] is reported as 38%. The Activity in assay [3] amounted to 37%.
In the case of `NCC[C@H](O)C(=O)N[C@@H]1C[C@H](N)[C@@H](O[C@H]2O[C@H](CN)[C@@H](O)[C@H](O)[C@H]2O)[C@H](O)[C@H]1O[C@H]1O[C@H](CO)[C@@H](O)[C@H](N)[C@H]1O` [AMIKACIN], the Activity in assay [1] was 4%.
In assay [2], `CCN1CCN(C(=O)N[C@@H](C(=O)N[C@@H]2C(=O)N3[C@@H]2SC(C)(C)[C@@H]3C(=O)O)c2ccccc2)C(=O)C1=O` [PIPERACILLIN] gave an MIC50 of 256 µg/mL (≈ 495 µM) and an MIC90 of over 256 µg/mL. The Activity in assay [1] amounted to 11%. In addition, the Activity in assay [3] is reported as 80%.
For the molecule `O=C(N[C@H](CO)[C@H](O)c1ccc([N+](=O)[O-])cc1)C(Cl)Cl` [CHLORAMPHENICOL], the MIC50 in assay [2] turned out to be 64 µg/mL (≈ 198 µM). Moreover, the MIC90 in assay [2] was over 64 µg/mL. Also, the Activity in assay [1] is reported as 5%; in assay [3], 85%.
For `CO/N=C(\C(=O)N[C@@H]1C(=O)N2C(C(=O)[O-])=C(C[N+]3(C)CCCC3)CS[C@H]12)c1csc(N)n1` [CEFEPIME], the Activity in assay [1] is 8%.
Consider `CO[C@H]1/C=C/O[C@@]2(C)Oc3c(C)c(O)c4c(O)c(c(/C=N/N5CCN(C)CC5)c(O)c4c3C2=O)NC(=O)/C(C)=C\C=C\[C@H](C)[C@H](O)[C@@H](C)[C@@H](O)[C@@H](C)[C@H](OC(C)=O)[C@@H]1C` [RIFAMPIN], for which the Activity in assay [1] came to 1%.
Turning to `CC1(C)S[C@@H]2[C@H](NC(=O)[C@H](C(=O)O)c3ccsc3)C(=O)N2[C@H]1C(=O)O` [TICARCILLIN], the Activity in assay [1] was found to be 2%.
In assay [2], `CC(C)(O/N=C(\C(=O)N[C@@H]1C(=O)N2C(C(=O)[O-])=C(C[n+]3ccccc3)CS[C@H]12)c1csc(N)n1)C(=O)O` [CEFTAZIDIME] registered an MIC50 of 32 µg/mL (≈ 58.5 µM) and an MIC90 of 128 µg/mL (≈ 234 µM). Also, the Activity in assay [1] stood at 23%. The Activity in assay [3] is given as 65%.

These data come from ChEMBL document CHEMBL1142070, “Antimicrobial susceptibility and synergy studies of Burkholderia cepacia complex isolated from patients with cystic fibrosis” (2007).
